In ChEMBL document CHEMBL1137718, “Topological descriptors in modeling the agonistic activity of human A3 adenosine receptor ligands: the derivatives of 2-chloro-N(6)-substituted-4'-thioadenosine-5'-uronamide” (Eur J Med Chem, 2009):

These compounds were tested against T1, Adenosine receptor A3 (Homo sapiens, UniProt P0DMS8) (assay: Displacement of [125I][…] from human adenosine A3 receptor expressed in CHO cells).
T1 sequence (P0DMS8 whole entry): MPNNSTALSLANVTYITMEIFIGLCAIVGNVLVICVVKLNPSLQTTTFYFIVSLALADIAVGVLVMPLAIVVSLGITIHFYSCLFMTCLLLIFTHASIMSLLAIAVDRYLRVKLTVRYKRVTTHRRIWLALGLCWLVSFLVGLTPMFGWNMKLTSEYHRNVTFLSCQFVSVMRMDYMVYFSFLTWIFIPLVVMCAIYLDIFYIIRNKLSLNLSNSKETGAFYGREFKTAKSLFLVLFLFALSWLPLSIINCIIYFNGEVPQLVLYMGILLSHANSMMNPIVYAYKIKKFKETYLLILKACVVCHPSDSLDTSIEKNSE
Format: cell-based

In order of rising Ki:
1. CNC(=O)[C@H]1O[C@@H](n2cnc3c(N)nc(Cl)nc32)[C@H](O)[C@@H]1O  0.000398 µM
2. CCNC(=O)[C@H]1O[C@@H](n2cnc3c(NC4CC4)nc(Cl)nc32)[C@H](O)[C@@H]1O  0.000676 µM
3. CCNC(=O)[C@H]1S[C@@H](n2cnc3c(NCc4cccc(I)c4)nc(Cl)nc32)[C@H](O)[C@@H]1O  0.000891 µM
4. CNc1nc(Cl)nc2c1ncn2[C@@H]1O[C@H](C(=O)NCC2CC2)[C@@H](O)[C@H]1O  0.0011 µM
5. CNc1nc(Cl)nc2c1ncn2[C@@H]1O[C@H](C(=O)NCCC(C)C)[C@@H](O)[C@H]1O  0.00162 µM
6. CNC(=O)[C@H]1O[C@@H](n2cnc3c(NCc4ccccc4C)nc(Cl)nc32)[C@H](O)[C@@H]1O  0.00219 µM
7. CNC(=O)[C@H]1O[C@@H](n2cnc3c(NC4CC4)nc(Cl)nc32)[C@H](O)[C@@H]1O  0.00224 µM
8. CCNC(=O)[C@H]1O[C@@H](n2cnc3c(NCc4ccccc4C)nc(Cl)nc32)[C@H](O)[C@@H]1O  0.00251 µM
9. CNc1nc(Cl)nc2c1ncn2[C@@H]1O[C@H](C(=O)NC2CC2)[C@@H](O)[C@H]1O  0.00282 µM
10. O=C(NC1CC1)[C@H]1S[C@@H](n2cnc3c(NCc4cccc(I)c4)nc(Cl)nc32)[C@H](O)[C@@H]1O  0.00295 µM
11. O=C(NCC1CC1)[C@H]1S[C@@H](n2cnc3c(NCc4cccc(I)c4)nc(Cl)nc32)[C@H](O)[C@@H]1O  0.00363 µM
12. CNC(=O)[C@H]1S[C@@H](n2cnc3c(NC4CCCC4)nc(Cl)nc32)[C@H](O)[C@@H]1O  0.00427 µM
13. O=C(NC1CC1)[C@H]1S[C@@H](n2cnc3c(NC4CC4)nc(Cl)nc32)[C@H](O)[C@@H]1O  0.00562 µM
14. CNc1nc(Cl)nc2c1ncn2[C@@H]1O[C@H](C(=O)NCc2cccc(F)c2)[C@@H](O)[C@H]1O  0.0174 µM
15. O=C(NC1CCC1)[C@H]1S[C@@H](n2cnc3c(NCc4cccc(I)c4)nc(Cl)nc32)[C@H](O)[C@@H]1O  0.0182 µM
16. Cc1ccccc1CNc1nc(Cl)nc2c1ncn2[C@@H]1O[C@H](C(=O)NC2CC2)[C@@H](O)[C@H]1O  0.0275 µM
17. Cc1ccccc1CNc1nc(Cl)nc2c1ncn2[C@@H]1O[C@H](C(=O)NCC2CC2)[C@@H](O)[C@H]1O  0.0295 µM
18. CC(C)CCNC(=O)[C@H]1O[C@@H](n2cnc3c(NCc4cccc(I)c4)nc(Cl)nc32)[C@H](O)[C@@H]1O  0.0417 µM
19. CNc1nc(Cl)nc2c1ncn2[C@@H]1O[C@H](C(=O)NCCc2cccc(F)c2)[C@@H](O)[C@H]1O  0.0851 µM
20. O=C(NCc1cccc(Cl)c1)[C@H]1O[C@@H](n2cnc3c(NCc4cccc(I)c4)nc(Cl)nc32)[C@H](O)[C@@H]1O  0.309 µM
21. O=C(NCCC(c1ccccc1)c1ccccc1)[C@H]1O[C@@H](n2cnc3c(NCc4cccc(I)c4)nc(Cl)nc32)[C@H](O)[C@@H]1O  0.347 µM
22. O=C(NCc1cccc(C(F)(F)F)c1)[C@H]1O[C@@H](n2cnc3c(NCc4cccc(I)c4)nc(Cl)nc32)[C@H](O)[C@@H]1O  0.355 µM
23. CNc1nc(Cl)nc2c1ncn2[C@@H]1O[C@H](C(=O)NCCC(c2ccccc2)c2ccccc2)[C@@H](O)[C@H]1O  0.417 µM
24. O=C(NCCc1ccccc1)[C@H]1O[C@@H](n2cnc3c(NCc4cccc(I)c4)nc(Cl)nc32)[C@H](O)[C@@H]1O  0.437 µM
25. O=C([C@H]1S[C@@H](n2cnc3c(NCc4cccc(I)c4)nc(Cl)nc32)[C@H](O)[C@@H]1O)N1CCOCC1  0.513 µM
26. Cc1ccccc1CNc1nc(Cl)nc2c1ncn2[C@@H]1O[C@H](C(=O)N(C)C)[C@@H](O)[C@H]1O  0.631 µM
27. O=C([C@H]1S[C@@H](n2cnc3c(NCc4cccc(I)c4)nc(Cl)nc32)[C@H](O)[C@@H]1O)N1CCC(Cc2ccccc2)CC1  0.871 µM
28. O=C([C@H]1O[C@@H](n2cnc3c(NCc4cccc(I)c4)nc(Cl)nc32)[C@H](O)[C@@H]1O)N1CCN(c2ccc(F)cc2)CC1  1.45 µM
29. CNc1nc(Cl)nc2c1ncn2[C@@H]1O[C@H](C(=O)N(C)C)[C@@H](O)[C@H]1O  1.51 µM
30. CNc1nc(Cl)nc2c1ncn2[C@@H]1O[C@H](C(=O)N2CCN(c3ccc(F)cc3)CC2)[C@@H](O)[C@H]1O  2.69 µM
31. CNc1nc(Cl)nc2c1ncn2[C@@H]1O[C@H](C(=O)N2CCC(Cc3ccccc3)CC2)[C@@H](O)[C@H]1O  3.47 µM
32. CNc1nc(Cl)nc2c1ncn2[C@@H]1O[C@H](C(=O)N2CCOCC2)[C@@H](O)[C@H]1O  3.89 µM
33. O=C([C@H]1O[C@@H](n2cnc3c(NC4CC4)nc(Cl)nc32)[C@H](O)[C@@H]1O)N1CCC(Cc2ccccc2)CC1  3.98 µM
34. O=C([C@H]1O[C@@H](n2cnc3c(NC4CC4)nc(Cl)nc32)[C@H](O)[C@@H]1O)N1CCOCC1  4.47 µM
35. Cc1ccccc1CNc1nc(Cl)nc2c1ncn2[C@@H]1O[C@H](C(=O)N2CCOCC2)[C@@H](O)[C@H]1O  7.59 µM
36. Cc1ccccc1CNc1nc(Cl)nc2c1ncn2[C@@H]1O[C@H](C(=O)N2CCC(Cc3ccccc3)CC2)[C@@H](O)[C@H]1O  49 µM
